In US20210059959A1, “USE OF CANNABINOIDS IN THE TREATMENT OF MENTAL DISORDERS” (GW Pharma Limited, priority 2015, published 2021):

Tests used:
rats treated with MK-801 = details: cited from earlier work
[1] = tested on: participants with schizophrenia or related psychotic disorder; assay: Positive and Negative Syndrome Scale (PANSS), double-blind placebo-controlled study of CBD as adjunctive therapy; assay type: in vivo, human
Description: Example 1 below describes the use of a highly purified cannabis extract comprising cannabidiol (CBD) in a human clinical trial. Example 1 describes data produced in a double-blind, randomised, placebo-controlled, parallel group study of highly purified CBD as adjunctive therapy in first line treatment of schizophrenia or related psychotic disorder.
An eight-week, multi-centre, double-blind, randomised, placebo-controlled, parallel group study was conducted with the aim to determine the efficacy, safety and tolerability of highly purified CBD as adjunctive therapy in first line treatment of schizophrenia or related psychotic disorder.
This study evaluated the efficacy of highly purified CBD compared with placebo on the participant's PANSS Total score, ‘P’, ‘N’, ‘G’, SANS and BACS scores.
Changes from baseline in PANSS scores (Total, ‘P’, ‘N’ and ‘G’), SANS and BACS were recorded at the start of the study (baseline) and at the end of treatment (after 6 weeks treatment with CBD or placebo).
For inclusion in the study participants were required to be male or female aged 18 to 65 years, diagnosed with schizophrenia or a related psychotic disorder (such as schizoaffective or schizophreniform disorder) as defined by the Diagnostic and Statistical Manual of Mental Disorders Version 4. Participants must have been treated for a minimum of four-weeks and be on a stable dose of their current antipsychotic medication. […] A PANSS score in excess of 60 infers that the patient has symptoms related to schizophrenia or related disorders.
The participants were randomised to one of two treatment groups which each consisted of 39 participants. Treatment was administered as either 5 ml CBD (100 mg/ml) oral solution to be taken twice daily or 5 ml matched placebo oral solution to be taken twice daily.
Positive and Negative Syndrome Scale (PANSS)
The PANSS is a medical scale completed by a trained rater and is used for measuring symptom severity of participants with schizophrenia or related psychotic disorder. The name refers to the two types of symptoms in schizophrenia, as defined by the American Psychiatric Association: positive symptoms, which refer to an excess or distortion of normal functions (e.g. hallucinations and delusions), and negative symptoms, which represent a diminution or loss of normal functions.
It is a 30 item rating instrument that assesses the positive and negative symptoms of schizophrenia as well as symptoms of general psychopathology. A PANSS Total score is derived from the sum of the 30 items and the PANSS items are also grouped into three subscales: Positive (‘P’), Negative (‘N’), and General (‘G’). Individual items are rated on a seven point scale, where 1=absent and 7=extreme. This scale was measured at each assessment visit (Visit 1-4).
The minimum score PANSS scoring system is 30 and patients with a score of higher than 60 are considered to still be suffering psychotic symptoms.
PANSS ‘P’ scale measures the severity of: • i) Delusions • ii) Conceptual disorganisation • iii) Hallucinations • iv) […] • v) Grandiosity • vi) Suspiciousness/persecution • vii) Hostility
PANSS ‘N’ scale measures the severity of: • i) Blunted affect • ii) Emotional withdrawal • iii) Poor rapport • iv) Passive/apathetic social withdrawal • v) Difficulty in abstract thinking • vi) Lack of spontaneity and flow of conversation • vii) Stereotyped thinking
PANSS ‘G’ psychopathology scale measures the severity of: • i) Somatic concern • ii) Anxiety • iii) Guilt feelings • iv) Tension • v) Mannerisms and posturing • vi) Depression • vii) Motor retardation • viii) Uncooperativeness • ix) Unusual thought content • x) Disorientation • xi) Poor attention • xii) Lack of judgment and insight • xiii) Disturbance of volition • xiv) Poor impulse control • xv) Preoccupation • xvi) Active social avoidance

[2] = tested on: patients with bipolar affective disorder; details: two female patients, 30 days; one with olanzapine as adjunct, one CBD monotherapy; cited from earlier work
[3] = CBD adjunct, 6 weeks, all patients
[4] = CBD adjunct, 6 weeks, patients on amisulpride
[5] = CBD adjunct, 6 weeks, patients on aripiprazole
[6] = CBD adjunct, 6 weeks, patients on olanzapine
[7] = CBD adjunct, 6 weeks, patients on other antipsychotics
[8] = CBD adjunct, 6 weeks, patients on quetiapine
[9] = CBD adjunct, 6 weeks, patients on risperidone

C=C(C)[C@@H]1CCC(C)=C[C@H]1c1c(O)cc(CCCCC)cc1O [CBD, Cannabidiol]
Effect on social deficits (rats treated with MK-801): reverse social deficits
Change in baseline scores, PANSS total score [1, 3]: −11.4
Change in baseline scores, PANSS ‘G’ score [1, 3]: −5.3
Change in baseline scores, PANSS ‘N’ score [1, 3]: −3.1
Change in baseline scores, PANSS ‘P’ score [1, 3]: −3.1
Change in baseline scores, PANSS total [1, 4]: −11.3
Change in baseline scores, PANSS ‘P’ score [1, 4]: −4.0
Change in baseline scores, PANSS total [1, 5]: −12.3
Change in baseline scores, PANSS ‘P’ score [1, 5]: −3.8
Change in baseline scores, PANSS total [1, 6]: −17.5
Change in baseline scores, PANSS ‘P’ score [1, 6]: −3.9
Change in baseline scores, PANSS total [1, 7]: −10.3
Change in baseline scores, PANSS ‘P’ score [1, 7]: −1.4
Change in baseline scores, PANSS total [1, 8]: −7.5
Change in baseline scores, PANSS ‘P’ score [1, 8]: −1.7
Change in baseline scores, PANSS total [1, 9]: −7.8
Change in baseline scores, PANSS ‘P’ score [1, 9]: −2.6
Responder status for change in baseline scores, PANSS ‘P’ score ([1]; CBD adjunct, patients with >= 20% change from baseline, P = 0.0679 vs placebo): 42.9%
Responder status for change in baseline scores, PANSS total score ([1]; CBD adjunct, patients with >= 20% change from baseline, P = 0.0896 vs placebo): 28.6%
Responder status for change in baseline scores, PANSS ‘G’ score ([1]; CBD adjunct, patients with >= 20% change from baseline, P = 0.2598 vs placebo): 28.6%
Responder status for change in baseline scores, PANSS ‘N’ score ([1]; CBD adjunct, patients with >= 20% change from baseline, P = 0.7951 vs placebo): 26.2%
Change in baseline scores, PANSS ‘P’ score: difference ([1]; CBD vs placebo, all patients, P = 0.0188): (−1.4)
Change in baseline scores, PANSS total score: difference ([1]; CBD vs placebo, all patients, P = 0.1332): (−2.8)
Change in baseline scores, PANSS ‘G’ score: difference ([1]; CBD vs placebo, all patients, P = 0.1963): (−1.3)
Change in baseline scores, PANSS ‘N’ score: difference ([1]; CBD vs placebo, all patients, P = 0.8841): (−0.1)
Change in baseline scores, PANSS total: difference ([1]; CBD vs placebo, patients on amisulpride, P = 0.5543): (7.9)
Change in baseline scores, PANSS ‘P’ score: difference ([1]; CBD vs placebo, patients on amisulpride, P = 0.8241): (−0.5)
Change in baseline scores, PANSS ‘P’ score: difference ([1]; CBD vs placebo, patients on aripiprazole, P = 0.0345): (−3.1)
Change in baseline scores, PANSS total: difference ([1]; CBD vs placebo, patients on aripiprazole, P = 0.1220): (−6.2)
Change in baseline scores, PANSS total: difference ([1]; CBD vs placebo, patients on olanzapine, P = 0.0067): (−10.7)
Change in baseline scores, PANSS ‘P’ score: difference ([1]; CBD vs placebo, patients on olanzapine, P = 0.1434): (−1.5)
Change in baseline scores, PANSS total: difference ([1]; CBD vs placebo, patients on other antipsychotics, P = 0.2746): (−10.6)
Change in baseline scores, PANSS ‘P’ score: difference ([1]; CBD vs placebo, patients on other antipsychotics, P = 0.9550): (−0.2)
Change in baseline scores, PANSS total: difference ([1]; CBD vs placebo, patients on quetiapine, P = 0.6640): (5.1)
Change in baseline scores, PANSS ‘P’ score: difference ([1]; CBD vs placebo, patients on quetiapine, P = 0.7905): (0.6)
Change in baseline scores, PANSS ‘P’ score: difference ([1]; CBD vs placebo, patients on risperidone, P = 0.4625): (−0.8)
Change in baseline scores, PANSS total: difference ([1]; CBD vs placebo, patients on risperidone, P = 0.6470): (1.8)
Efficacy in bipolar affective disorder [2]: ineffective
